From patent US20200055871A1, “ACTIVATORS OF THE RETINOIC ACID INDUCIBLE GENE "RIG-I" PATHWAY AND METHODS OF USE THEREOF” (Kineta Immuno-Oncology LLC, priority 2018, published 2020) come the findings set out here.

In test [1] the test system is IRF3 signaling pathway in THP1-Lucia™ ISG cells. The test can be described thus: THP1-Lucia ISG reporter assay: induction of IRF3-dependent gene expression (secreted luciferase). It is filed as cell-based, human. The settings on record: Homo sapiens, THP1-Lucia ISG, PMA-differentiated cells, 18 h after stimulation, read-out: fold increase of IRF3-dependent luciferase activity over background, THP1 ISG; for fold induction at 10 µM: 10 μM compound; for fold induction at 20 µM: 20 μM compound (*). As to the method:
The compounds were evaluated in the THP1-Lucia™ ISG (interferon stimulated genes) reporter assay to determine if the compounds activate the IRF3 signaling pathway. The THP1-Lucia™ cells (InvivoGen) express the secreted luciferase (Lucia) reporter gene under the control of an IRF-inducible promoter. The reporter cell line was developed from human monocytic leukemia THP-1 cells.
The promoter was comprised of five IFN-stimulated response elements (ISRE) fused to an ISG54 minimal promoter which is unresponsive to NF-kB or AP-1 pathways. […] The IRF3-deficient THP1-Lucia™ ISG IRF3−/−reporter cell line was generated by CRISPR technology from the parent THP1-Lucia™ ISG reporter cell line.
THP1-Lucia™ ISG cells and IRF3-deficient THP1-Lucia™ ISG IRF3−/−cells were differentiated with PMA (100 ng/ml) and stimulated with compounds at the indicated concentrations (5 to 20 μM), positive control, or not treated (background). Luciferase secretion was quantified using the QUANTI-Luc luciferase assay system (InvivoGen) 18 h after stimulation. Data are shown as fold increase luciferase activity over background in Table 7 and represent the IRF3-dependent ISG54 promoter activity by the THP1-Lucia™ ISG cells in response to compounds. […] The fold increase of compounds (10 μM, *20 μM, **5 μM) induced IRF3 dependent luciferase activity is indicated as follows: “≠” indicates less than 2.4 fold increase; “+” indicates a 2.4-4.9 fold increase; “++” indicates a 5-9.9 fold increase; “+++” indicates a 10-19 fold increase; “++++” indicates a 20-39 fold increase; “+++++” indicates greater than or equal to 40 fold increase.

Test [2] deals with murine CT26 colon carcinoma cells. The test can be described thus: RIG-I dependent CXCL10 secretion by CT26 cells (ELISA). It is filed as cell-based. The settings on record: supernatant 24 h after stimulation. As to the method:
(§1) The CT26 murine colon carcinoma cell line (ATCC) was used to evaluate the induction of CXCL10 secretion. CXCL10 is an important chemokine in tumor immune biology that recruits tumor-specific T cells to the tumor. To confirm that compound-mediated CXCL10 production was RIG-I specific, RIG-1 deficient CT2-RIG-I−/−cells were generated by Kineta Inc. using CRISPR technology.
(§2) CT26 cells were seeded at a density of 1×10^4 cells per well on a 96-well tissue culture plate in 100 μL of cell culture and cells were incubated at 37° C. and 5% CO2 for 24 hr. Next, CT26 cells were treated with compounds at the indicated concentrations. CXCL10 was quantified by ELISA from supernatants taken 24 h after compound stimulation by use of the CXCL10 Duo Set ELISA kit (Cat #DY466, R&D, Minneapolis, Minn., USA) according to the manufacturer's instructions.
(§3) CXCL10 secretion by CT26 cells in response to compounds (in an amount of 5 to 20 μM) of the present disclosure is shown in Table 8. The compound-induced CXCL10 production was RIG-I dependent, since none of the compounds mediated CXCL10 secretion in RIG-I deficient CT26 RIG-I−/−cells (about 0 pg/mL of CXCL10, or below the level of quantitation). The compounds (10 μM, *20 μM, **5 μM) are indicated in the table as follows: “≠” indicates less than 100 pg/mL; “+” indicates 100-199 pg/mL; “++” indicates 200-399 pg/mL; “+++” indicates 400-799 pg/mL; “++++” indicates 800 to 1599 pg/mL; “+++++” indicates greater than or equal to 1600 pg/ml.
Background: ELISA stands for enzyme-linked immunosorbent assay.

For test [3], the system named is RIG-I deficient CT26 RIG-I−/− cells. Briefly: CXCL10 secretion by RIG-I deficient CT26 RIG-I−/− cells (ELISA). It is filed as cell-based, murine. The settings on record: compound 5 to 20 μM, 24 h. The protocol: as §1, §2, §3

As for `CSc1nc2c(ccc3nc(NC(=O)c4ccc5ccccc5c4)sc32)s1` [Example 19, N-[11-(methylsulfanyl)-3,10-dithia-5,12-diazatricyclo[7.3.0.0^2,^6]dodeca-1,4,6,8,11-pentaen-4-yl]naphthalene-2-carboxamide], in test [1], the fold induction at 10 µM lay in the range of 10 to 19. For the same molecule, the “CXCL10 secretion, CT26” value in test [2] (20 μM compound (*)) is given as “+++* (400-799 pg/mL)”. Also, the “CXCL10 secretion, CT26 RIG-I−/−” value in test [3] is given as “−”.

For `Cn1ccc2ccc(C(=O)Nc3nc4ccc5scnc5c4s3)cc21` [Example 20, N-{3,10-dithia-5,12-diazatricyclo[7.3.0.0^2,^6]dodeca-1,4,6,8,11-pentaen-4-yl}-1-methyl-1H-indole-6-carboxamide], the fold induction at 10 µM in test [1] is 10 to 19. For the same molecule, the “CXCL10 secretion, CT26” value in test [2] (10 μM compound) was “+++ (400-799 pg/mL)”. The “CXCL10 secretion, CT26 RIG-I−/−” value in test [3] is recorded as “−”.

For the molecule `O=C(Nc1nc2ccc3scnc3c2s1)c1ccc(-c2ccccc2)cc1` [Example 21, N-{3,10-dithia-5,12-diazatricyclo[7.3.0.0^2,^6]dodeca-1,4,6,8,11-pentaen-4-yl}-[1,1′-biphenyl]-4-carboxamide], the fold induction at 10 µM in test [1] lay within 10 to 19. The “CXCL10 secretion, CT26” value in test [2] (10 μM compound) is reported as “+ (100-199 pg/mL)”. Further, the “CXCL10 secretion, CT26 RIG-I−/−” value in test [3] was “−”.

`COc1nc2c(ccc3nc(NC(=O)c4ccc5ccccc5c4)sc32)s1` [Example 22, N-{11-methoxy-3,10-dithia-5,12-diazatricyclo[7.3.0.0^2,^6]dodeca-1,4,6,8,11-pentaen-4-yl}naphthalene-2-carboxamide]: the fold induction at 10 µM in test [1] was in the range of 20 to 39. For the same molecule, the “CXCL10 secretion, CT26” value in test [2] (10 μM compound) is recorded as “++ (200-399 pg/mL)”. Moreover, in test [3], the “CXCL10 secretion, CT26 RIG-I−/−” value is on record as “−”.

As for `Cc1nc2c(ccc3nc(NC(=O)c4ccc5ccccc5c4)sc32)s1` [Example 23, N-{11-methyl-3,10-dithia-5,12-diazatricyclo[7.3.0.0^2,^6]dodeca-1,4,6,8,11-pentaen-4-yl}naphthalene-2-carboxamide], in test [1], the fold induction at 10 µM was 5 to 9.9. In test [2] (20 μM compound (*)), the “CXCL10 secretion, CT26” value is recorded as “+++++* (greater than or equal to 1600 pg/ml)”. The “CXCL10 secretion, CT26 RIG-I−/−” value in test [3] is recorded as “−”.

In the case of `O=C(Nc1nc2ccc3scnc3c2s1)c1cc2ccccc2cc1OCCN1CCOCC1` [Example 24, N-{3,10-dithia-5,12-diazatricyclo[7.3.0.0^2,^6]dodeca-1,4,6,8,11-pentaen-4-yl}-3-[2-(morpholin-4-yl)ethoxy]naphthalene-2-carboxamide], the fold induction at 10 µM in test [1] lay within 20 to 39. Moreover, in test [2] (10 μM compound), the “CXCL10 secretion, CT26” value is listed as “+++ (400-799 pg/mL)”. Further, the “CXCL10 secretion, CT26 RIG-I−/−” value in test [3] is “−”.

With `O=C(Nc1nc2ccc3scnc3c2s1)c1cc2ccccc2cc1OCCN1CCCCC1` [Example 25, N-{3,10-dithia-5,12-diazatricyclo[7.3.0.0^2,^6]dodeca-1,4,6,8,11-pentaen-4-yl}-3-[2-(piperidin-1-yl)ethoxy]naphthalene-2-carboxamide], the fold induction at 10 µM in test [1] was in the range of 2.4 to 4.9. Further, in test [2] (10 μM compound), the “CXCL10 secretion, CT26” value was “++ (200-399 pg/mL)”. The “CXCL10 secretion, CT26 RIG-I−/−” value in test [3] was “−”.

As to `O=C(Nc1nc2ccc3scnc3c2s1)c1cc2ccccc2cc1OCCC1CCOCC1` [Example 27, N-{3,10-dithia-5,12-diazatricyclo[7.3.0.0^2,^6]dodeca-1,4,6,8,11-pentaen-4-yl}-3-[2-(oxan-4-yl)ethoxy]naphthalene-2-carboxamide], the fold induction at 20 µM in test [1] was 5 to 9.9. Moreover, in test [2] (10 μM compound), the “CXCL10 secretion, CT26” value is listed as “++ (200-399 pg/mL)”. Moreover, the “CXCL10 secretion, CT26 RIG-I−/−” value in test [3] was “−”.

With `O=C(Nc1nc2ccc3scnc3c2s1)c1cc2ccccc2cc1OCCCCN1CCOCC1` [Example 28, N-{3,10-dithia-5,12-diazatricyclo[7.3.0.0^2,^6]dodeca-1,4,6,8,11-pentaen-4-yl}-3-[4-(morpholin-4-yl)butoxy]naphthalene-2-carboxamide], the fold induction at 10 µM in test [1] was in the range of 2.4 to 4.9. The “CXCL10 secretion, CT26” value in test [2] (10 μM compound) is on record as “++ (200-399 pg/mL)”. In test [3], the “CXCL10 secretion, CT26 RIG-I−/−” value is “−”.

For `COc1nc2c(ccc3nc(NC(=O)c4cc5ccccc5cc4OCCN4CCOCC4)sc32)s1` [Example 29, N-{11-methoxy-3,10-dithia-5,12-diazatricyclo[7.3.0.0^2,^6]dodeca-1,4,6,8,11-pentaen-4-yl}-3-[2-(morpholin-4-yl)ethoxy]naphthalene-2-carboxamide], the fold induction at 10 µM in test [1] fell in the range of 10 to 19. Also, the “CXCL10 secretion, CT26” value in test [2] (10 μM compound) is reported as “+ (100-199 pg/mL)”. Moreover, the “CXCL10 secretion, CT26 RIG-I−/−” value in test [3] is listed as “−”.

`COc1nc2c(ccc3nc(NC(=O)c4cc5ccccc5cc4OCCN4CCCCC4)sc32)s1` [Example 30, N-{11-methoxy-3,10-dithia-5,12-diazatricyclo[7.3.0.0^2,^6]dodeca-1,4,6,8,11-pentaen-4-yl}-3-[2-(piperidin-1-yl)ethoxy]naphthalene-2-carboxamide]: the fold induction at 10 µM in test [1] fell in the range of 10 to 19. Moreover, the “CXCL10 secretion, CT26” value in test [2] (10 μM compound) was “+++ (400-799 pg/mL)”. Moreover, the “CXCL10 secretion, CT26 RIG-I−/−” value in test [3] is “−”.

`COc1nc2c(ccc3nc(NC(=O)c4cc5ccccc5cc4OCCCN4CCOCC4)sc32)s1` [Example 31, N-{11-methoxy-3,10-dithia-5,12-diazatricyclo[7.3.0.0^2,^6]dodeca-1,4,6,8,11-pentaen-4-yl}-3-[3-(morpholin-4-yl)propoxy]naphthalene-2-carboxamide]: the fold induction at 10 µM in test [1] lay within 5 to 9.9. Further, in test [2] (10 μM compound), the “CXCL10 secretion, CT26” value was “++ (200-399 pg/mL)”. For the same molecule, in test [3], the “CXCL10 secretion, CT26 RIG-I−/−” value is listed as “−”.

For `COc1nc2c(ccc3nc(NC(=O)c4cc5ccccc5cc4OCCCCN4CCOCC4)sc32)s1` [Example 32, N-{11-methoxy-3,10-dithia-5,12-diazatricyclo[7.3.0.0^2,^6]dodeca-1,4,6,8,11-pentaen-4-yl}-3-[4-(morpholin-4-yl)butoxy]naphthalene-2-carboxamide], the fold induction at 10 µM in test [1] was 10 to 19. In addition, the “CXCL10 secretion, CT26” value in test [2] (10 μM compound) is “++ (200-399 pg/mL)”. For the same molecule, the “CXCL10 secretion, CT26 RIG-I−/−” value in test [3] is “−”.

As to `O=C(Nc1nc2ccc3scnc3c2s1)c1cc2ccccc2cc1OCCN1CC2CC1CO2` (stereo not drawn) [Example 33, N-{3,10-dithia-5,12-diazatricyclo[7.3.0.0^2,^6]dodeca-1,4,6,8,11-pentaen-4-yl}-3-(2-{2-oxa-5-azabicyclo[2.2.1]heptan-5-yl}ethoxy)naphthalene-2-carboxamide], the fold induction at 20 µM in test [1] is 10 to 19. Moreover, in test [2] (10 μM compound), the “CXCL10 secretion, CT26” value is “++++ (800 to 1599 pg/mL)”. In addition, the “CXCL10 secretion, CT26 RIG-I−/−” value in test [3] was “−”.

Turning to `O=C(Nc1nc2ccc3scnc3c2s1)c1cc2ccccc2cc1OCCN1CC2(COC2)C1` [Example 34, N-{3,10-dithia-5,12-diazatricyclo[7.3.0.0^2,^6]dodeca-1,4,6,8,11-pentaen-4-yl}-3-(2-{2-oxa-6-azaspiro[3.3]heptan-6-yl}ethoxy)naphthalene-2-carboxamide], in test [1], the fold induction at 10 µM lay within 2.4 to 4.9. In test [2] (5 μM compound (**)), the “CXCL10 secretion, CT26” value is reported as “+++** (400-799 pg/mL)”. The “CXCL10 secretion, CT26 RIG-I−/−” value in test [3] was “−”.

For `CSc1nc2c(ccc3nc(NC(=O)c4cc5ccccc5cc4OCCN4CCOCC4)sc32)s1` [Example 35, N-[11-(methylsulfanyl)-3,10-dithia-5,12-diazatricyclo[7.3.0.0^2,^6]dodeca-1,4,6,8,11-pentaen-4-yl]-3-[2-(morpholin-4-yl)ethoxy]naphthalene-2-carboxamide], the fold induction at 10 µM in test [1] fell in the range of 5 to 9.9. The “CXCL10 secretion, CT26” value in test [2] (20 μM compound (*)) is “++* (200-399 pg/mL)”. The “CXCL10 secretion, CT26 RIG-I−/−” value in test [3] was “−”.
